Experimental data published in patent publication US6649610B1, “2-oxo-1, 4-benzoxazine compounds for treatment of tuberculosis” (priority 2001, dated 2003).

Legend:
[1] = system: M. tuberculosis ATCC 25177; assay: BACTEC 460 radiometric growth inhibition bio-assay; format: cell-based, Mycobacterium tuberculosis; details: final concentration of 0.1 mg/ml; BACTEC 12B medium; growth index
[2] = Animal toxicity bioassay (acute toxicity, intraperitoneal); format: in vivo; details: both sexes, mouse, in vivo, ip; white mice, intraperitoneal injection, observed 14 days
Experimental: (§1) Animal Toxicity Bioassay. Acute toxicity was studied on white mice of both sexes with weight ranging between 18-26 grams under intraperitoneal injection of 2% solution of tested compound in starch (the compound was dissolved in starch slime and injected) on the basis of 0.1 ml of solution per 10 g of the animal weight. Each dose was tested on the group of 6 animals that were observed during 14 day period. (This method was approved by the Pharmacology committee of Russian Ministry of Health and has been widely used since 1968.) Averaged lethal dose (LD50) of the compound was computed using results of experiments on 5-7 groups of animals using the method of Litchfield and Wilkinson. (Belenkii M. L. “Elements of quantative determination of the pharmacological effect,” Leningrad, 1963, 71 pages).

[3] = system: white mouse; details: intraperitoneal injection; cited from earlier work
[4] = system: man; details: cited from earlier work
[5] = system: white mice; assay: Animal toxicity bioassay (acute toxicity, intraperitoneal); format: in vivo; details: intraperitoneal injection, observed 14 days
Experimental: as §1

[6] = system: human and non-human myeloma; assay: Activity against myeloma

SMILES | percent activity against Mycobacterium tuberculosis [1] | LD50 at 14 day [2] | LD50 (lethal dose 50 percent kill) [3] | acute ingestion amount leading to mild toxicity ([4]; adults, acute ingestion) | ingestion amount that may be fatal ([4]; adults, acute ingestion) | ingestion amount usually fatal if not appropriately treated ([4]; adults, acute ingestion) | overall mortality rate for acute isoniazid toxicity ([4]; estimated) | hepatitis-related death rate ([4]; individuals who complete a full course of prophylaxis) | mortality rate ([4]; individuals who develop overt isoniazid-induced hepatitis) | LCL0 (lowest published lethal concentration) ([4]; man) | overall hepatitis-related death rate ([4]; patients using isoniazid prophylaxis) | LD50 [5] | activity against human and non-human myeloma [6]
COc1ccc(C(=O)C(C(=O)Oc2c(C)cc(C)cc2C)=C2Nc3ccccc3OC2=O)cc1 [1F-19, 2,4,6-trimethylphenyl 2-(3,4-dihydro-2-oxo-2H-1,4-benzoxazin-3-ylidene)-3-p-methoxyphenyl-3-oxo-propanoate] | 97% | > 1000 mg/kg | – | – | – | – | – | – | – | – | – | – | –
NNC(=O)c1ccncc1 [isoniazid, isonicotinic acid hydrazide] | – | – | 100 mg/kg | 1.5 g | 6 to 10 g | 15 g | 19% | 23.2-57.9 /100,000 | 10% | 100 mg/kg | approximately 0.001% | – | –
O=C(Oc1c(-c2nc3ccccc3oc2=O)c(=O)n2c(c1C(=O)c1ccccc1)c(=O)oc1ccccc12)c1ccccc1 [1F-18, 4-benzoyl-3-benzoyloxy-2-(2-oxo-2H-1,4-benzoxazin-3-yl)pyrido[2,1-c][1,4]benzoxazin-1,5-dione] | 95% | – | – | – | – | – | – | – | – | – | – | > 2000 mg/kg | 100%
